Results taken from patent publication US11945834B2, “Cyclic dinucleotides as anticancer agents” (BRISTOL-MYERS SQUIBB COMPANY, priority 2018, dated 2024).
Like-named read-outs stand apart in the source and are kept apart here.

Assays:
[1] = test system: NF-κB pathway in THP1-Dual cells (STING agonists); experiment: STING THP1 reporter assay, NF-κB pathway (SEAP); assay type: cell-based; conditions: 10% human plasma, SEAP readout, 100% = 100 μM cGAMP, read-out: THP1 Reporter Assays EC50 (μM) NFkB
Source text: (§1) THP1-Dual™ cells were derived from the human THP-1 monocyte cell line by stable integration of two inducible reporter constructs. To this end, THP1-Dual™ cells allow the simultaneous study of the NF-κB pathway, by monitoring the activity of SEAP, and the IRF pathway by assessing the activity of a secreted luciferase (Lucia). Both reporter proteins are readily measurable in the cell culture supernatant when using QUANTI-Blue™, a SEAP detection reagent, and QUANTI-Luc™, a luciferase detection reagent.
(§2) THP1-Dual™ cells induce the activation of NF-κB in response to STING agonists. They also trigger the IRF pathway upon stimulation with STING agonists, such as cGAMP. Here, the THP-1-Dual cells were used to assess STING binders for function on the cellular level.
(§3) Serial dilutions of compounds in DMSO were added to low volume 384 well plates at 100 nl/well using an ECHO acoustic dispenser (Labcyte, model 550) to achieve final starting concentration of 100 μM in cell suspension. THP-1 Dual™ STING reporter cells (Invivogen, Dual cells cat #THPD-nfis) were added to the plates with compounds at 15,000 cells in 10 μL per well in RPMI media (Gibco, cat #11875) containing 10% human plasma in a low volume 384-well black wall clear bottom tissue culture plate (Corning, cat #3542) for SEAP assay and low volume solid white plate (Corning, cat #3826) for luciferase assay. One column of the plate was reserved for treatment with cGAMP at 100 μM for 100% activation calculation and one column for no treatment (DMSO only) for baseline activation. Plates were then incubated in 37° C. incubator at 5% CO2 for 20 hours.
(§4) In the SEAP assay, 5 μl of 2× QuantiBlue (Invivogen, cat #Rep-qb2) is added to 384 well black plates seeded with THP1 cells and incubated at 37° C. for 2 hours. Plates were read on the Envision (Perkin Elmer) at 620 nm wavelength (OD620). In the luciferase assay, 5 μl of Quantiluc (Invivogen, Rep-qlc2) is added to white 384 well plates seeded with THP1 cells and read at 5 minutes on the Envision (Perkin Elmer) using a luminescence protocol (RLU). For both cell lines, 100% activation was determined by value (RLU) of THP-1 Dual STING cells stimulated with 100 μM cGAMP (Invivogen, cat #TLRL-NACGA23-5).

[2] = biological target: T1, STING AQ: His-TVMV-S-hSTING(155-341)-G230A-R293Q (Homo sapiens, UniProt Q86WV6, G230A/H232R/R293Q); experiment: STING HTRF binding assay, STING AQ; conditions: 20 nM His-tagged STING cytoplasmic domain AQ, 40 nM fluorescein-labeled cGAMP analog probe, one hour; read-out: HTRF Binding Assays IC50 (μM) AQ
T1 construct: STING AQ: His-TVMV-S-hSTING(155-341)-G230A-R293Q
Procedure: (§5) A time resolved FRET-based competition binding assay was used to assess test article binding to STING WT and STING AQ. His-tagged STING cytoplasmic domain (WT or AQ) at a concentration of 20 nM was incubated with 2.5 nM Tb-labeled anti-His antibody, test compound, and fluorescein-labeled cGAMP analog probe (BioLog cat. no. C195) at a concentration of 200 nM (STING WT) or 40 nM (STING AQ) in PBS containing 0.005% Tween-20 and 0.1% BSA for one hour. Fluorescence at 495 nm and 520 nm was measured using an EnVision microplate reader to quantify FRET between Tb-labeled anti-His antibody and fluorescein-labeled probe. Background was defined as the signal obtained in the absence of STING protein, and background subtracted FRET ratios were normalized to the maximum signal obtained in the absence of test compound. These values were converted to a percent inhibition. Percent inhibition was determined for test compounds at 11 concentrations. The IC50, defined as the concentration of competing test compound needed to reduce specific binding of the probe by 50%, was calculated using the 4 parameter logistic equation to fit the data

[3] = biological target: T2, STING WT: His-TVMV-S-hSTING(155-341)-H232R (Homo sapiens, UniProt Q86WV6, H232R); experiment: STING HTRF binding assay, STING WT; conditions: 20 nM His-tagged STING cytoplasmic domain WT, 200 nM fluorescein-labeled cGAMP analog probe, one hour; read-out: HTRF Binding Assays IC50 (μM) WT
T2 construct: STING WT: His-TVMV-S-hSTING(155-341)-H232R
Procedure: as §5

[4] = test system: IRF pathway in THP1-Dual cells (STING agonists); experiment: STING THP1 reporter assay, IRF pathway (Lucia luciferase); assay type: cell-based; conditions: 10% human plasma, luciferase readout, 100% = 100 μM cGAMP, read-out: THP1 Reporter Assays EC50 (μM) IRF3
Source text: as §1, §2, §3, §4

T1 sequence (Q86WV6 with tags, fused parts or gaps G230A/H232R/R293Q): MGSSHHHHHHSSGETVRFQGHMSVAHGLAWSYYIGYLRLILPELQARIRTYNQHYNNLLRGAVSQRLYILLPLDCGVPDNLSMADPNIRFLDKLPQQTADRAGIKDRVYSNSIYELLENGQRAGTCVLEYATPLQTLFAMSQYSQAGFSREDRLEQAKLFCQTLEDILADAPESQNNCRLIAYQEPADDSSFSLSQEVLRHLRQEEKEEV
T2 sequence (Q86WV6 with tags, fused parts or gaps H232R): as the sequence (Q86WV6 with tags, fused parts or gaps G230A/H232R/R293Q) above, with A99G, Q162R counted along it

NC(=O)c1cc([C@@H]2O[C@@H]3COP(=O)(S)O[C@H]4[C@@H](F)[C@H](n5cnc6c(N)ncnc65)O[C@@H]4COP(=O)(S)O[C@@H]2[C@@H]3F)ccn1 (single isomer, unassigned) [Example 4-1]
EC50 ([1]; 20 hours): 57.1 µM | IC50 [2]: 0.05 µM | IC50 [3]: 0.66 µM | EC50 ([4]; 20 hours): 19 µM

CNC(=O)c1cc([C@@H]2O[C@@H]3COP(=O)(S)O[C@H]4[C@@H](F)[C@H](n5cnc6c(N)ncnc65)O[C@@H]4COP(=O)(S)O[C@@H]2[C@@H]3O)ccn1 (single isomer, unassigned) [Example 2-4]
IC50 [2]: 4.85 µM | IC50 [3]: 92.3 µM | EC50 ([4]; 20 hours): > 100 µM

NC(=O)c1cc([C@@H]2O[C@@H]3COP(=O)(S)O[C@H]4[C@@H](F)[C@H](n5cnc6c5ncn5ccnc65)O[C@@H]4COP(=O)(S)O[C@@H]2[C@@H]3O)ccn1 (single isomer, unassigned) [Example 5-2]
EC50 ([1]; Homo sapiens, THP1-Dual, 20 h): 0.38 µM | IC50 [2]: 14 µM | IC50 [3]: 93.4 µM | EC50 ([4]; Homo sapiens, THP1-Dual, 20 h): 0.14 µM

NC(=O)c1cc([C@@H]2O[C@@H]3COP(=O)(S)O[C@H]4[C@@H](F)[C@H](n5cnc6c(N)ncnc65)O[C@@H]4COP(=O)(S)O[C@@H]2[C@@H]3F)ccn1 (single isomer, unassigned) [Example 4-2]
EC50 ([1]; 20 hours): 1.32 µM | IC50 [2]: 0.03 µM | IC50 [3]: 0.09 µM | EC50 ([4]; 20 hours): 0.37 µM

C=C1[C@H]2OP(=O)(S)OC[C@H]3O[C@@H](n4cnc5c(N)ncnc54)[C@H](F)[C@@H]3OP(=O)(S)OC[C@H]1O[C@H]2c1ccnc(C(N)=O)c1 (single isomer, unassigned) [Example 3-1]
EC50 ([1]; 20 hours): 22.6 µM | IC50 [2]: 0.04 µM | IC50 [3]: 0.78 µM | EC50 ([4]; 20 hours): 9.23 µM

C=C1[C@H]2OP(=O)(S)OC[C@H]3O[C@@H](n4cnc5c(N)ncnc54)[C@H](F)[C@@H]3OP(=O)(S)OC[C@H]1O[C@H]2c1ccnc(C(N)=O)c1 (single isomer, unassigned) [Example 3-4]
EC50 ([1]; 20 hours): 19.3 µM | IC50 [2]: 0.09 µM | IC50 [3]: 1.21 µM | EC50 ([4]; 20 hours): 7.4 µM

NC(=O)c1cc([C@@H]2O[C@@H]3COP(=O)(S)O[C@H]4[C@@H](F)[C@H](n5cnc6c(N)ncnc65)O[C@@H]4COP(=O)(S)O[C@@H]2[C@@H]3O)ccn1 (single isomer, unassigned) [Example 1-1]
EC50 ([1]; Homo sapiens, THP1-Dual, 20 h): 8.05 µM | IC50 [2]: 0.01 µM | IC50 [3]: 0.09 µM | EC50 ([4]; Homo sapiens, THP1-Dual, 20 h): 4.94 µM

C=C1[C@H]2OP(=O)(S)OC[C@H]3O[C@@H](n4cnc5c(N)ncnc54)[C@H](F)[C@@H]3OP(=O)(S)OC[C@H]1O[C@H]2c1ccnc(C(N)=O)c1 (single isomer, unassigned) [Example 3-2]
EC50 ([1]; 20 hours): > 100 µM | IC50 [2]: 1.64 µM | IC50 [3]: 40.9 µM | EC50 ([4]; 20 hours): > 100 µM

C=C1[C@H]2OP(=O)(S)OC[C@H]3O[C@@H](n4cnc5c(N)ncnc54)[C@H](F)[C@@H]3OP(=O)(S)OC[C@H]1O[C@H]2c1ccnc(C(N)=O)c1 (single isomer, unassigned) [Example 3-3]
EC50 ([1]; 20 hours): > 100 µM | IC50 [2]: 1.03 µM | IC50 [3]: 14.4 µM | EC50 ([4]; 20 hours): > 100 µM

CNC(=O)c1cc([C@@H]2O[C@@H]3COP(=O)(S)O[C@H]4[C@@H](F)[C@H](n5cnc6c(N)ncnc65)O[C@@H]4COP(=O)(S)O[C@@H]2[C@@H]3O)ccn1 (single isomer, unassigned) [Example 2-1]
EC50 ([1]; Homo sapiens, THP1-Dual, 20 h): > 100 µM | IC50 [2]: 0.6 µM | IC50 [3]: 10.3 µM | EC50 ([4]; Homo sapiens, THP1-Dual, 20 h): > 100 µM
